# Molecular target: Human Factor D (Homo sapiens (Human), UniProt P00746)
# Experiment: Human Factor D assay
# Assay type: biochemical
# Settings: not given
# Protocol: Example 8. Human Factor D Assay
# Human Factor D (purified from human serum, Complement Technology, Inc.) at 80 nM final concentration is incubated with test compound at various concentrations for 5 minutes at room temperature in 50 mM Tris, 1M NaCl, pH 7.5. A synthetic substrate Z-L-Lys-SBzl and DTNB (Ellman's reagent) are added to final concentrations of 100 μM each. Absorbance at 405 nm (A405) is recorded at 30 second intervals for 30 minutes using a microplate spectrophotometer. IC50 values are calculated by nonlinear regression of complement Factor D reaction rates as a function of test compound concentration.
# Human Factor D, sequence (P00746 26-253): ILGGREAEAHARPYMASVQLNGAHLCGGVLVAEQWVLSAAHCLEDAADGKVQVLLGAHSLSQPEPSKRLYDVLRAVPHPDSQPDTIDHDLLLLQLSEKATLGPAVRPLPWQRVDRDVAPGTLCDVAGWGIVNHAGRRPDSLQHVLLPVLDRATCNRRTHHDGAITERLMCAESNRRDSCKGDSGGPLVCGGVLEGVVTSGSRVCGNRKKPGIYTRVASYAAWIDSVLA
row,SMILES,IC50 [µM]
1,"CC(C)(C)OC(=O)N=S(C)(=O)c1cccc(-c2cccc(NC(=O)[C@@H]3C[C@@H](F)CN3C(=O)Cn3nc(C(N)=O)c4ccccc43)c2F)c1 (stereo partly drawn) [Compound 49, tert-butyl ((3′-((2S,4R)-1-(2-(3-carbamoyl-1H-indazol-1-yl)acetyl)-4-fluoropyrrolidine-2-carboxamido)-2′-fluoro-[1,1′-biphenyl]-3-yl)(methyl)(oxo)-16-sulfaneylidene)-14-azanecarboxylate]",1 to 10

# Same assay, conditions: Factor D 80 nM, substrate Z-L-Lys-SBzl; Table 1; read-out: IC50
row,SMILES,IC50 [µM]
1,"CCOP(=O)(COc1cc2c(cc1-c1cnc(C)nc1)c(C(C)=O)cn2CC(=O)N1C[C@H](F)C[C@H]1C(=O)Nc1cccc(-c2ccccc2Cl)c1F)OCC [Compound 8, diethyl (3-acetyl-1-(2-((2S,4R)-2-(2′-chloro-2-fluorobiphenyl-3-ylcarbamoyl)-4-fluoropyrrolidin-1-yl)-2-oxoethyl)-5-(2-methylpyrimidin-5-yl)-1H-indol-6-yloxy)methylphosphonate]",< 1
2,"CC(=O)c1cn(CC(=O)N2C[C@H](F)C[C@H]2C(=O)Nc2cccc(-c3ccccc3Cl)c2F)c2cc(OCP(=O)(O)O)c(-c3cnc(C)nc3)cc12 [Compound 9, (3-acetyl-1-(2-((2S,4R)-2-(2′-chloro-2-fluorobiphenyl-3-ylcarbamoyl)-4-fluoropyrrolidin-1-yl)-2-oxoethyl)-5-(2-methylpyrimidin-5-yl)-1H-indol-6-yloxy)methylphos-phonic acid]",< 1
3,"CC(=O)c1cn(CC(=O)N2C[C@H](F)C[C@H]2C(=O)Nc2cccc(Br)n2)c2cc(OCP(=O)(O)O)c(-c3cnc(C)nc3)cc12 [Compound 13, (3-acetyl-1-(2-((2S,4R)-2-(6-bromopyridin-2-ylcarbamoyl)-4-fluoropyrrolidin-1-yl)-2-oxoethyl)-5-(2-methylpyrimidin-5-yl)-1H-indol-6-yloxy)methylphos-phonic acid]",< 1

# Same assay, conditions: Factor D 80 nM, substrate Z-L-Lys-SBzl; Table 2 (headed TABLE 1); read-out: IC50
row,SMILES,IC50 [µM]
1,"CC(=O)c1nn(CC(=O)N2C[C@H](F)C[C@H]2C(=O)Nc2cccc(Br)n2)c2cc(OCC(=O)N(C)C)c(-c3cnc(C)nc3)cc12 [Compound 26, (2S,4R)-1-(2-(3-acetyl-6-(2-(dimethylamino)-2-oxoethoxy)-5-(2-methylpyrimidin-5-yl)-1H-indazol-1-yl)acetyl)-N-(6-bromopyridin-2-yl)-4-fluoropyrrolidine-2-carboxamide]",< 1
2,"CC(=O)c1nn(CC(=O)N2C[C@H](F)C[C@H]2C(=O)Nc2cccc(Br)n2)c2cc(OCCOCc3ccccc3)c(-c3cnc(C)nc3)cc12 [Compound 33, (2S,4R)-1-(2-(3-acetyl-6-(2-(benzyloxy)ethoxy)-5-(2-methylpyrimidin-5-yl)-1H-indazol-1-yl)acetyl)-N-(6-bromopyridin-2-yl)-4-fluoropyrrolidine-2-carboxamide]",< 1
3,"COCOCCOc1cc2c(cc1-c1cnc(C)nc1)c(C(C)=O)nn2CC(=O)N1C[C@H](F)C[C@H]1C(=O)Nc1cccc(Br)n1 [Compound 39, (2S,4R)-1-(2-(3-acetyl-6-(2-(methoxymethoxy)ethoxy)-5-(2-methylpyrimidin-5-yl)-1H-indazol-1-yl)acetyl)-N-(6-bromopyridin-2-yl)-4-fluoropyrrolidine-2-carboxamide]",< 1
4,"CC(=O)c1nn(CC(=O)N2C[C@H](F)C[C@H]2C(=O)Nc2cccc(Br)n2)c2cc(OCCO)c(-c3cnc(C)nc3)cc12 [Compound 41, (2S,4R)-1-(2-(3-acetyl-6-(2-hydroxyethoxy)-5-(2-methylpyrimidin-5-yl)-1H-indazol-1-yl)acetyl)-N-(6-bromopyridin-2-yl)-4-fluoropyrrolidine-2-carboxamide]",< 1
5,"CC(=O)c1nn(CC(=O)N2C[C@H](F)C[C@H]2C(=O)Nc2cccc(Br)n2)c2cc(OCCN(C)C)c(-c3cnc(C)nc3)cc12 [Compound 44, (2S,4R)-1-(2-(3-acetyl-6-(2-(dimethylamino)ethoxy)-5-(2-methylpyrimidin-5-yl)-1H-indazol-1-yl)acetyl)-N-(6-bromopyridin-2-yl)-4-fluoropyrrolidine-2-carboxamide]",< 1
6,"CC(=O)c1nn(CC(=O)N2C[C@H](F)C[C@H]2C(=O)Nc2cccc(Br)n2)c2ccc(-c3cnc(S(C)(=N)=O)nc3)cc12 (stereo partly drawn) [Compound 46, (2S,4R)-1-(2-(3-acetyl-5-(2-(S-methylsulfonimidoyl)pyrimidin-5-yl)-1H-indazol-1-yl)acetyl)-N-(6-bromopyridin-2-yl)-4-fluoropyrrolidine-2-carboxamide]",< 1
7,"CC(=O)c1cn(CC(=O)N2C[C@H](F)C[C@H]2C(=O)Nc2cccc(Br)n2)c2ccc(S(C)(=O)=NC(=O)OC(C)(C)C)cc12 (stereo partly drawn) [Compound 47, tert-butyl ((3-acetyl-1-(2-((2S,4R)-2-((6-bromopyridin-2-yl)carbamoyl)-4-fluoropyrrolidin-1-yl)-2-oxoethyl)-1H-indol-5-yl)(methyl)(oxo)-16-sulfaneylidene)-14-azanecarboxylate]",< 1
8,"CC(=O)c1cn(CC(=O)N2C[C@H](F)C[C@H]2C(=O)Nc2cccc(Br)n2)c2ccc(S(C)(=N)=O)cc12 (stereo partly drawn) [Compound 48, (2S,4R)-1-(2-(3-acetyl-5-(S-methylsulfonimidoyl)-1H-indol-1-yl)acetyl)-N-(6-bromopyridin-2-yl)-4-fluoropyrrolidine-2-carboxamide]",< 1

# From patent US11001600B2, “Disubstituted compounds for treatment of medical disorders” (Achillion Pharmaceuticals, Inc., priority 2015, dated 2021)
